Patent publication US20100004159A1, “SUBSTITUTED IMIDAZOLONE DERIVATIVES, PREPARATIONS AND USES” (GENFIT, priority 2006, published 2010)

Experiments:
[1] = target: T1, angiotensin II AT1 receptor (Oryctolagus cuniculus, UniProt P34976); assay: Ex vivo agonist/antagonist activity on isolated rabbit thoracic aorta rings; conditions: 0.3, 3 and 30 μM; for agonist activity (contraction): non-treated rabbit thoracic aorta; for antagonist activity (inhibition of contractile response to angiotensin II): rabbit thoracic aorta previously exposed to angiotensin II 0.003 μM
T1 construct: tissue CEREP; host or cells: rabbit thoracic aorta rings
T1 sequence (P34976 1-359): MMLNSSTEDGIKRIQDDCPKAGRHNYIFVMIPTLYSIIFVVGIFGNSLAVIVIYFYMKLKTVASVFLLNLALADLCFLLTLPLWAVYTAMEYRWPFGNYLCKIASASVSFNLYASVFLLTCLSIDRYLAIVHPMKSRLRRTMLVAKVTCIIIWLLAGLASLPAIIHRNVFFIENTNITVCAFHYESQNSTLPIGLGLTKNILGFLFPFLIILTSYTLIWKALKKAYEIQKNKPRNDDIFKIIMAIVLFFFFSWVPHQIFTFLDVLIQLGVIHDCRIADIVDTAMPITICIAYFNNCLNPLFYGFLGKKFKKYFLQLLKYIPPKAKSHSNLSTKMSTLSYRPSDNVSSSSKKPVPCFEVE
Description: This activity is either agonist or antagonist and was evaluated ex vivo on isolated organs. Agonist activity corresponds to tissue contraction. Antagonist activity corresponds to tissue dilatation.
The ex vivo test was performed at the CEREP (Celle L'Evescault, France (86)) following a protocol based on Pendleton et al. (Pendleton R G et al.,1989). Rabbit thoracic aorta rings with intact endothelium were suspended in baths for organs containing an oxygenated physiologic saline solution (95% O2 and 5% CO2) and preheated (37° C.) having the following composition (mM): NaCl 118.0, KCl 4.7, MgSO4 1.2, CaCl2 2.5, KH2PO4 1.2, NaHCO3 25.0, and glucose 11.0 (pH 7.4).
Benextramine (1 μM), propranolol (1 μM), pyrilamine (1 μM), atropine (1 μM), methysergide (1 μM), and captopril (0.1 μM) were also used in all carried out experiments to block respectively α-adrenergic, β-adrenergic, histaminic H1 muscarinic, and 5-HT2 receptors as well as to prevent peptide degradation. The tissues were bound to a force sensor suitable for isometric tension recording. They were stretched to a resting tension of 4 g, then stabilized for 60 minutes. During the stabilization, they were washed several times and the tension was adjusted. The experiments were carried out using semi-automatic systems of isolated organs with eight organ baths and multichannel data acquisition.
The tissues were exposed to a submaximal concentration of the reference agonist (angiotensin II at 0.003 μM) to verify the response and obtain a control contractile response.
After several washing operations and after having recovered the basal tone, the tissues were exposed to increasing concentrations of compounds according to the invention or the same agonist. The different concentrations were added cumulatively, each one was left in contact with the tissues until a stable response was reached and for a maximum of 30 minutes. If an agonist type response (contraction) was registered, the reference antagonist (Saralasine at 0.01 μM) was tested regarding the highest concentration of the compounds according to the invention to confirm the involvement of the AT1 receptors in the response.
After stabilization of the contraction induced by angiotensin II, increasing concentrations of compounds according to the invention or of the reference antagonist (Saralasine) were added cumulatively. Each concentration was left in contact with the tissues until a stable response was observed and for a maximum of 30 minutes.
The inhibiting effect of the compounds according to the invention on the contraction induced by the angiotensin 11 indicates antagonist activity on AT1 receptors.

agonist activity (contraction) [1] | melting point [°C] | SMILES | antagonist activity (inhibition of contractile response to angiotensin II) [1]
do not induce contraction | 85 | CCCCC1=NC2(CCCCC2)C(=O)N1Cc1ccc(-c2cccc(OC(C)C(=O)O)c2)cc1 (stereo not shown) [Compound 53] | inhibiting effect of the contractile response of the reference agonist
– | < 60 | CCCCC1=NC2(CCCC2)C(=O)N1Cc1ccc(-c2cc(OC(C)(C)C(=O)O)ccc2CCC)cc1 [Compound 76, 2-butyl-1-[(3′-((1-carboxy-1,1-dimethylmethyl)oxy)-6′-propyl-biphenyl-4-yl)methyl]-4-spirocyclopentyl-1H-imidazol-5(4H)-one] | –
– | 170 | CCCCC1=NC2(CCCC2)C(=O)N1Cc1cccc(-c2ccc(OC(C)(C)C(=O)O)cc2)c1 [Compound 77, 2-butyl-1-[(4′-((1-carboxy-1,1-dimethylmethyl)oxy)biphenyl-3-yl)methyl]-4-spirocyclopentyl-1H-imidazol-5(4H)-one] | –
do not induce contraction | 143 | CCCCC1=NC2(CCCC2)C(=O)N1Cc1ccc(-c2cc(OC(C)(C)C(=O)O)ccc2CC)cc1 [Compound 80, 2-butyl-1-[(3′-((1-carboxy-1,1-dimethylmethyl)oxy)-6′-ethyl-biphenyl-4-yl)methyl]-4-spirocyclopentyl-1H-imidazol-5(4H)-one] | inhibiting effect of the contractile response of the reference agonist
– | 78 | CCCCC1=NC2(CCCC2)C(=O)N1Cc1ccc(-c2ccc(CC(C)C)c(OC(C)(C)C(=O)O)c2)cc1 [Compound 81, 2-butyl-1-[(3′-((1-carboxy-1,1-dimethylmethyl)oxy)-4′-isobutyl-biphenyl-4-yl)methyl]-4-spirocyclopentyl-1H-imidazol-5(4H)-one] | –
– | 76 | CCCCC1=NC2(CCCC2)C(=O)N1Cc1ccc(-c2cc(OCC(=O)O)ccc2CCC)cc1 [Compound 84, 2-butyl-1-[(3′-((1-carboxymethyl)oxy)-6′-propyl-biphenyl-4-yl)methyl]-4-spirocyclopentyl-1H-imidazol-5(4H)-one] | –
– | 76 | CCCCC1=NC2(CCCC2)C(=O)N1Cc1ccc(-c2cccc(OC(CC)c3nnn[nH]3)c2)cc1 (stereo not shown) [Compound 99, 2-butyl-1-[(3′-((1-(tetrazol-5-yl)-1-ethylmethyl)oxy)-biophenyl-4-yl)methyl]-4-spirocyclopentyl-1H-imidazol-5(4H)-one] | –

More lines, now with the values behind:

SMILES | agonist activity (contraction) [1] | melting point [°C] | antagonist activity (inhibition of contractile response to angiotensin II) [1]
CCCCC1=NC2(CCCCC2)C(=O)N1Cc1ccc(-c2cccc(OC(CC)C(=O)O)c2)c(C)c1 (stereo not shown) [Compound 71, 2-butyl-1-[(3′-((1-carboxy-1-ethylmethyl)oxy)-3-methyl-biphenyl-4-yl)methyl]-4-spirocyclohexyl-1H-imidazol-5(4H)one] | – | 77 | –
CCCCC1=NC2(CCCCC2)C(=O)N1Cc1ccc(-c2cccc(OC(C)(C)C(=O)O)c2)c(C)c1 [Compound 72] | – | 140 | –
CCCCC1=NC2(CCCC2)C(=O)N1Cc1cccc(-c2cccc(OC(C)(C)C(=O)O)c2)c1 [Compound 74, 2-butyl-1-[(3′-((1-carboxy-1,1-dimethylmethyl)oxy)biphenyl-3-yl)methyl]-4-spirocyclopentyl-1H-imidazol-5(4H)-one] | – | 70 | –
CCCCC1=NC2(CCCC2)C(=O)N1Cc1cccc(-c2ccccc2OC(C)(C)C(=O)O)c1 [Compound 75, 2-butyl-1-[(2′-((1-carboxy-1,1-dimethylmethyl)oxy)biphenyl-3-yl)methyl]-4-spirocyclopentyl-1H-imidazol-5(4H)-one] | – | 167 | –
CCCCC1=NC2(CCCC2)C(=O)N1Cc1ccc(-c2cccc(OC(C)(C)C(=O)O)c2F)cc1 [Compound 78, 2-butyl-1-[(3′-((1-carboxy-1,1-dimethylmethyl)oxy)-2′-fluoro-biphenyl-4-yl)methyl]-4-spirocyclopentyl-1H-imidazol-5(4H)-one] | – | 162 | –
CCCCC1=NC2(CCCC2)C(=O)N1Cc1ccc(-c2cc(OC(C)C(=O)O)ccc2CCC)cc1 (stereo not shown) [Compound 83, 2-butyl-1-[(3′-((1-carboxy-1-methylmethyl)oxy)-6′-propyl-biphenyl-4-yl)methyl]-4-spirocyclopentyl-1H-imidazol-5(4H)-one] | – | 76 | –
CCCCC1=NC2(CCCC2)C(=O)N1Cc1ccc(-c2cc(OC(CC)C(=O)O)ccc2CCC)cc1 (stereo not shown) [Compound 85, 2-butyl-1-[(3′-((1-carboxy-1-ethylmethyl)oxy)-6′-propyl-biphenyl-4-yl)methyl]-4-spirocyclopentyl-1H-imidazol-5(4H)-one] | – | 74 | –
CCCCC1=NC2(CCCC2)C(=O)N1Cc1ccc(-c2cc(OC(C(=O)O)C(C)C)ccc2CCC)cc1 (stereo not shown) [Compound 86, 2-butyl-1-[(3′-((1-carboxy-1-(1,1-dimethylmethyl)methyl)oxy)-6′-propyl-biphenyl-4-yl)methyl]-4-spirocyclopentyl-1H-imidazol-5(4H)-one] | – | 81 | –
CCCCC1=NC2(CCCC2)C(=O)N1Cc1ccc(-c2cc(OC(C)(C)C(=O)O)ccc2CC(C)C)cc1 [Compound 87, 2-butyl-1-[(3∝-((1-carboxy-1,1-dimethylmethyl)oxy)-6′-isobutyl-biphenyl-4-yl)methyl]-4-spirocyclopentyl-1H-imidazol-5(4H )-one] | – | < 50 | –
CCCCC1=NC2(CCCC2)C(=O)N1Cc1ccc(-c2cc(OC(C)(C)C(=O)O)ccc2C#N)cc1 [Compound 89, 2-butyl-1-[(3′-((1-carboxy-1.1-dimethylmethyl)oxy)-6′-cyano-biphenyl-4-yl)methyl]-4-spirocyclopentyl-1H-imidazol-5(4H)-one] | – | < 50 | –
CCCCC1=NC2(CCCC2)C(=O)N1Cc1ccc(-c2cccc(OC(C)(C)C(=O)O)c2)c(OC)c1 [Compound 90] | – | 157 | –
CCCCC1=NC2(CCCC2)C(=O)N1Cc1ccc(-c2cccc(OC(C)(C)C(=O)O)c2)cc1C [Compound 91] | – | 160 | –
CCCCC1=NC2(CCCC2)C(=O)N1Cc1ccc(-c2ccc([N+](=O)[O-])c(OC(C)(C)C(=O)O)c2)cc1 [Compound 95, 2-butyl-1-[(3′-((1-carboxy-1,1-dimethylmethyl)oxy)-4′-nitro-biphenyl-4-yl)methyl]-4-spirocyclopentyl-1H-imidazol-5(4H)-one] | – | < 50 | –
CCCCC1=NC2(CCCC2)C(=O)N1Cc1ccc(-c2ccc(CCC)c(OC(C)(C)C(=O)O)c2)cc1 [Compound 98, 2-butyl-1-[(3′-((1-carboxy-1,1-dimethylmethyl)oxy)-4′-propyl-biphenyl-4-yl)methyl]-4-spirocyclopentyl-1H-imidazol-5(4H)-one] | – | 74 | –
